The record followed here is PubChem BioAssay AID248 (DTP/NCI, 2004).

The structures appear in SMILES notation. Values joined by “and” are separate entries in the source; they are usually repeats but may differ in a detail not shown here. Equal values may be shown once. Toxic doses and inconclusive results are not listed.

In this experiment the test system is L1210 leukemia ip in BDF1 mice, survival T/C. Nature of the experiment: NCI In Vivo Anticancer Drug Screen. Data for tumor model L1210 Leukemia (intraperitoneal) in B6D2F1 (BDF1) mice. The following applies: endpoint: mean survival time, higher = longer survival. The procedure, abridged: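 Tumor was transplanted into mice, which were then dosed with test compound or vehicle alone. Survival was recorded for each group, and the treated figure was expressed relative to the control figure.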

[1] abbreviates: dose: 100.0 mg/kg/injection, schedule: Q01DX001 (ip), vehicle: carboxymethylcellulose (CMC).
Where [2] appears, read: dose: 200.0 mg/kg/injection, schedule: Q01DX001 (ip), vehicle: carboxymethylcellulose (CMC).
Where [3] appears, read: dose: 400.0 mg/kg/injection, schedule: Q01DX001 (ip), vehicle: carboxymethylcellulose (CMC).
[4] abbreviates: dose: 50.0 mg/kg/injection, schedule: Q01DX001 (ip), vehicle: saline.
Setting [5] is: dose: 100.0 mg/kg/injection, schedule: Q01DX001 (ip), vehicle: saline.
[6] abbreviates: dose: 200.0 mg/kg/injection, schedule: Q01DX001 (ip), vehicle: saline.
The mark [7] stands for this setting: dose: 400.0 mg/kg/injection, schedule: Q01DX001 (ip), vehicle: saline.
[8] abbreviates: dose: 100.0 mg/kg/injection, schedule: Q01DX009 (ip), vehicle: saline with Tween-80.
Where [9] appears, read: dose: 200.0 mg/kg/injection, schedule: Q01DX009 (ip), vehicle: saline with Tween-80.
The mark [10] stands for this setting: dose: 100.0 mg/kg/injection, schedule: Q04DX002 (ip), vehicle: Klucel (hydroxypropylcellulose) (HPC).
Where [11] appears, read: dose: 200.0 mg/kg/injection, schedule: Q04DX002 (ip), vehicle: Klucel (hydroxypropylcellulose) (HPC).
Setting [12] is: dose: 400.0 mg/kg/injection, schedule: Q04DX002 (ip), vehicle: Klucel (hydroxypropylcellulose) (HPC).
Where [13] appears, read: dose: 50.0 mg/kg/injection, schedule: Q01DX009 (ip), vehicle: saline with Tween-80.

In the case of `CC(C)CCCC(C)C1CCC2C3CC=C4CC(OC(=O)Nc5ccc(S(=O)(=O)N(C)C)cc5)CCC4(C)C3CCC12C` (configuration not stated), the T/C is 103 % of control (dose: 100.0 mg/kg/injection, schedule: Q01DX001 (sc), vehicle: steriod suspending solution); 103 % of control (dose: 200.0 mg/kg/injection, schedule: Q01DX001 (sc), vehicle: steriod suspending solution); 103 % of control (dose: 400.0 mg/kg/injection, schedule: Q01DX001 (sc), vehicle: steriod suspending solution).

For the compound `CCNC(=O)c1cc[n+](CC)c(/C=C/c2c[nH]c3ccccc23)c1`, the T/C under setting [1] is 96 % of control, the T/C under setting [2] was 98 % of control and the T/C under setting [3] was 100 % of control.

`CCOC(=O)C1CN(C)C(=O)C1=O` (configuration not stated): the T/C runs as follows: under setting [4], 100 % of control; under setting [5], 93 % of control; under setting [6], 87 % of control; under setting [7], 114 % of control.

Turning to `OC1OC(COC(c2ccccc2)(c2ccccc2)c2ccccc2)C(O)C(O)C1O` (configuration not stated), the T/C runs as follows: (dose: 50.0 mg/kg/injection, schedule: Q01DX009 (ip), vehicle: saline) 95 % of control; under setting [8], 100 % of control and 102 % of control; (dose: 100.0 mg/kg/injection, schedule: Q01DX009 (ip), vehicle: saline) 98 % of control; (dose: 100.0 mg/kg/injection, schedule: Q04DX003 (ip), vehicle: saline with Tween-80) 102 % of control; (dose: 100.0 mg/kg/injection, schedule: Q04DX003 (ip), vehicle: saline) 102 % of control; (dose: 100.0 mg/kg/injection, schedule: Q04DX003 (ip), vehicle: water) 105 % of control. The T/C runs as follows: under setting [9], 95 % of control and 96 % of control; (dose: 200.0 mg/kg/injection, schedule: Q01DX009 (ip), vehicle: saline) 95 % of control; (dose: 200.0 mg/kg/injection, schedule: Q04DX003 (ip), vehicle: saline with Tween-80) 96 % of control; (dose: 200.0 mg/kg/injection, schedule: Q04DX003 (ip), vehicle: saline) 93 % of control; (dose: 200.0 mg/kg/injection, schedule: Q04DX003 (ip), vehicle: water) 97 % of control; (dose: 400.0 mg/kg/injection, schedule: Q01DX009 (ip), vehicle: saline with Tween-80) 104 % of control. Moreover, the T/C (dose: 400.0 mg/kg/injection, schedule: Q04DX003 (ip), vehicle: saline with Tween-80) is 94 % of control and the T/C (dose: 400.0 mg/kg/injection, schedule: Q04DX003 (ip), vehicle: water) was 96 % of control.

Consider `O=C(Nc1ccccc1Cl)N1CCOCC1`, for which the T/C under setting [10] was 106 % of control, the T/C under setting [11] is 103 % of control and the T/C under setting [12] is 87 % of control.

With `Nc1nc(N)c(N=Nc2ccc(Cl)cc2)c(Cl)n1`, the T/C by setting is: under setting [1], 94 % of control; under setting [2], 97 % of control; under setting [3], 94 % of control.

`CSc1cccc(NC(=S)NC(=O)c2ccccc2)c1`: the T/C is 96 % of control (dose: 25.0 mg/kg/injection, schedule: Q01DX009 (ip), vehicle: Klucel (hydroxypropylcellulose) (HPC)); 94 % of control (dose: 50.0 mg/kg/injection, schedule: Q01DX009 (ip), vehicle: Klucel (hydroxypropylcellulose) (HPC)); 91 % of control (dose: 100.0 mg/kg/injection, schedule: Q01DX009 (ip), vehicle: Klucel (hydroxypropylcellulose) (HPC)).

Consider `COc1ccc2c3c1OC1C(O)=CCC4[C@H](C2)N(C)CC[C@@]314` (some centres not stated), for which the T/C runs as follows: under setting [5], 95 % of control; under setting [6], 106 % of control.

With `CC1CC(NC(=O)N(CCCl)N=O)CC(C)(C)C1` (configuration not stated), the T/C reads like this: (dose: 8.0 mg/kg/injection, schedule: Q01DX001 (ip), vehicle: other) 96 % of control; (dose: 16.0 mg/kg/injection, schedule: Q01DX001 (ip), vehicle: other) 94 % of control; (dose: 31.0 mg/kg/injection, schedule: Q01DX001 (ip), vehicle: other) 105 % of control; (dose: 62.0 mg/kg/injection, schedule: Q01DX001 (ip), vehicle: other) 120 % of control; (dose: 250.0 mg/kg/injection, schedule: Q01DX001 (ip), vehicle: other) 157 % of control; (dose: 375.0 mg/kg/injection, schedule: Q01DX001 (ip), vehicle: other) 292 % of control. The T/C (dose: 500.0 mg/kg/injection, schedule: Q01DX001 (ip), vehicle: other) is 308 % of control and the T/C (dose: 750.0 mg/kg/injection, schedule: Q01DX001 (ip), vehicle: other) is 333 % of control.

As for `CC(C)C(C(=O)O)C(=O)O`, the T/C is, setting by setting: under setting [5], 102 % of control; under setting [6], 104 % of control; under setting [7], 112 % of control.

For the compound `Nc1ncnc2c1c(I)cn2C1OC(CO)C(O)C1O` (configuration not stated), the T/C by setting is: (dose: 5.0 mg/kg/injection, schedule: Q01DX001 (ip), vehicle: saline) 102 % of control; (dose: 10.0 mg/kg/injection, schedule: Q01DX001 (ip), vehicle: saline) 101 % of control; (dose: 20.0 mg/kg/injection, schedule: Q01DX001 (ip), vehicle: saline) 103 % of control; (dose: 40.0 mg/kg/injection, schedule: Q01DX001 (ip), vehicle: saline) 105 % of control.

For `O=C(/C=C(\C(=O)c1ccccc1)c1ccccc1)c1ccc(-c2ccccc2)cc1`, the T/C runs as follows: under setting [10], 97 % of control; under setting [11], 101 % of control; under setting [12], 93 % of control.

For the compound `CN(C)C(=O)NCc1cccnc1`, the T/C runs as follows: (dose: 100.0 mg/kg/injection, schedule: Q04DX013 (ip), vehicle: saline) 100 % of control; (dose: 200.0 mg/kg/injection, schedule: Q04DX013 (ip), vehicle: saline) 94 % of control; (dose: 400.0 mg/kg/injection, schedule: Q04DX013 (ip), vehicle: saline) 101 % of control.

Consider `CCOC(=O)NC(CI)c1ccccc1` (configuration not stated), for which the T/C is 96 % of control under setting [13], 88 % of control under setting [8] and 96 % of control under setting [9].

Take `CCc1cccc(CC)c1N1C(=O)CC(Sc2ccccc2N)C1=O` (configuration not stated): the T/C is, setting by setting: (dose: 100.0 mg/kg/injection, schedule: Q01DX009 (ip), vehicle: gum acacia) 93 % of control; (dose: 100.0 mg/kg/injection, schedule: Q04DX003 (ip), vehicle: gum acacia) 96 % of control; (dose: 200.0 mg/kg/injection, schedule: Q01DX009 (ip), vehicle: gum acacia) 91 % of control; (dose: 200.0 mg/kg/injection, schedule: Q04DX003 (ip), vehicle: gum acacia) 91 % of control; (dose: 400.0 mg/kg/injection, schedule: Q01DX009 (ip), vehicle: gum acacia) 98 % of control; (dose: 400.0 mg/kg/injection, schedule: Q04DX003 (ip), vehicle: gum acacia) 100 % of control.

Take `[Br][Hg][c]1ccccc1`: the T/C (dose: 75.0 mg/kg/injection, schedule: Q01DX001 (ip), vehicle: carboxymethylcellulose (CMC)) was 108 % of control.

With `OC(C/C(CNNc1ccccc1)=N/Nc1ccccc1)(C(F)(F)F)C(F)(F)F`, the T/C is, setting by setting: (dose: 100.0 mg/kg/injection, schedule: Q04DX003 (ip), vehicle: Klucel (hydroxypropylcellulose) (HPC)) 96 % of control; (dose: 200.0 mg/kg/injection, schedule: Q04DX003 (ip), vehicle: Klucel (hydroxypropylcellulose) (HPC)) 103 % of control; (dose: 400.0 mg/kg/injection, schedule: Q04DX003 (ip), vehicle: Klucel (hydroxypropylcellulose) (HPC)) 92 % of control.

As for `CC12CCCC=C1CC(C(C)(C)O)CC2` (configuration not stated), the T/C is 96 % of control under setting [13], 100 % of control under setting [8] and 100 % of control under setting [9].

With `O=[N+]([O-])c1cccc(/C=C\C=C\c2ccccc2)c1`, the T/C reads like this: under setting [4], 100 % of control; under setting [5], 103 % of control; under setting [6], 103 % of control; under setting [7], 94 % of control.

For the compound `CC(C(=O)O)N(C)C(=O)c1cnc2ccccc2n1` (configuration not stated), the T/C runs as follows: under setting [1], 94 % of control; (dose: 100.0 mg/kg/injection, schedule: Q04DX003 (ip), vehicle: carboxymethylcellulose (CMC)) 95 % of control; under setting [2], 96 % of control; (dose: 200.0 mg/kg/injection, schedule: Q04DX003 (ip), vehicle: carboxymethylcellulose (CMC)) 99 % of control; under setting [3], 89 % of control; (dose: 400.0 mg/kg/injection, schedule: Q04DX003 (ip), vehicle: carboxymethylcellulose (CMC)) 97 % of control.
